Key:
Format in all cases: cell-based, human
MCF-7 cells [1] = assay: Cyclic voltammetry (CV) response of MCF-7 cells attached on SiNW-based biosensor after drug treatment
From the text: For CV characterization, three-electrode electrochemical cyclic voltammetry may be performed using the electrochemical workstation. Instead of the system electrodes, the SiNW-based biosensor including integrated SiNW electrodes may be used that is designed and fabricated pursuant to the teachings of the present disclosure. CV assay may be performed between the integrated SiNW covered working electrode 103 and counter electrode 104, with an on chip reference electrode 105 (represented in FIGS. 1 and 5A). The reference electrode may be initially calibrated by an Ag/AgCl reference electrode in a solution of about 1 mM ferrocene carboxylic acid with about 1 mM potassium chloride. CV studies may be performed using DC voltage and applying no AC frequency. For CV data recording, measurements may be carried out at about −0.8 V to 0.8 V at a scan rate of about 100 mv/s. In this example, the effect of Mebendazole (MBZ), which is an antitubulin drug that induces tubulin depolymerization in cancer cells, may be investigated via an exemplary electrochemical method of the present disclosure. The MCF-7 cells attached on SiNWs of an exemplary biosensor of the present disclosure may be treated with different doses of MBZ and the electrochemical response of an individual non-treated (hereinafter “CTRL”) cell and treated cells may be monitored. […]

MCF-7 cells [2] = assay: Cell cycle progression of drug treated MCF-7 cells by flowcytometry analysis
Method: Accordingly, exemplary MCF-7 cell lines isolated from grade I human breast tumors may be used as cancer cells. The MCF-7 cells may be maintained in a CO2 incubator containing about 5% CO2 and at a temperature of about 37° C. in a RPMI-1640 medium supplemented with a 5% fetal bovine serum, and 1% penicillin/streptomycin. The fresh medium may be replaced every other day. Prior to each experiment, cells may be trypsinized to be detached from the substrate and re-suspended on the SiNW electrodes of an exemplary biosensor of the present disclosure. To minimize the effect of trypsinization, the procedure may be done in less than about 4 minutes at a room temperature of about 20° C. to about 22° C. The biosensor including the attached cells may be held in an incubator for about 4 hours to achieve cells attachment on the SiNWs. Then the MBZ drug with a low concentration (about 2 nano-mole per liter) and with a high concentration (about 10.5 nano-mole per liter) may be added to the cells. The signal recording and biological assays may be investigated at about 2, 6 and 10 hours after addition of the drug. In addition, cell cycle progression for CTRL and drug treated MCF-7 cells may be determined by flowcytometry analysis that are shown in FIG. 9A (for CTRL cells), FIG. 9B (for treated cells with about 2 nano-mole per liter of MBZ) and FIG. 9C (for treated cells with about 10.5 nano-mole per liter of MBZ). The cell's fractions in apoptotic (part 901), G0/G1 (part 902), S (part 903) and G2/M (part 904) cycles are observable in all of panels. Also, the state of counted cells for each of these three situations is represented at the Right side of the figures. […] But, proportion of G0/G1 fraction (part 902) was changed in MBZ incubated samples. The peak of G0/G1 was about 1300 in CTRL sample (FIG. 9A) meanwhile it was reduced to about 800 in MBZ (about 2 nano-mole per liter) treated cells (FIG. 9B). The result can be confirmed by side scatter versus forward scatter (SSC-FSC) diagram as a strong sign of cells granularity (represented at Right side of FIGS. 9A, 9B and 9C). […] By increasing the dose of MBZ to about 10.5 nM (FIG. 9C), apoptotic behavior (part 901) of the cells was affected. […] Such disorders in the cycle of the cells after MBZ treatment would be well demanded by affected anodic/cathodic response of the cells measured by SiNWs electrodes.

MCF-7 cells [3] = assay: Differential pulse voltammetry (DPV) response of MCF-7 cells attached on SiNW-based biosensor after drug treatment; conditions: for Absolute DPV current peak: about 2 nano-mole per liter MBZ; for Absolute DPV: about 10.5 nano-mole per liter MBZ
From the text: For DPV measurement, a derivative of linear sweep voltammetry, with a series of regular voltage pulses superimposed on the potential linear sweep. The current may be sampled twice, just before the pulse application and again, late in the pulse lifetime. The current may be measured immediately before each potential change, then the current difference may be plotted as a function of potential. By sampling the current just before the potential was changed, the effect of the charging current may be decreased. In this example, the effect of Mebendazole (MBZ), which is an antitubulin drug that induces tubulin depolymerization in cancer cells, may be investigated via an exemplary electrochemical method of the present disclosure. The MCF-7 cells attached on SiNWs of an exemplary biosensor of the present disclosure may be treated with different doses of MBZ and the electrochemical response of an individual non-treated (hereinafter “CTRL”) cell and treated cells may be monitored. Accordingly, exemplary MCF-7 cell lines isolated from grade I human breast tumors may be used as cancer cells. The MCF-7 cells may be maintained in a CO2 incubator containing about 5% CO2 and at a temperature of about 37° C. in a RPMI-1640 medium supplemented with a 5% fetal bovine serum, and 1% penicillin/streptomycin. The fresh medium may be replaced every other day. Prior to each experiment, cells may be trypsinized to be detached from the substrate and re-suspended on the SiNW electrodes of an exemplary biosensor of the present disclosure. To minimize the effect of trypsinization, the procedure may be done in less than about 4 minutes at a room temperature of about 20° C. to about 22° C. The biosensor including the attached cells may be held in an incubator for about 4 hours to achieve cells attachment on the SiNWs. Then the MBZ drug with a low concentration (about 2 nano-mole per liter) and with a high concentration (about 10.5 nano-mole per liter) may be added to the cells. […]

[4] = about 2 nano-mole per liter MBZ

## COC(=O)Nc1nc2ccc(C(=O)c3ccccc3)cc2[nH]1 [MBZ, Mebendazole]
MCF-7 cells [1]; MBZ about 2 and about 10.5 nano-mole per liter, 2 hours after drug incubation, MCF-7 on SiNW electrodes
  anodic and cathodic spikes in CV diagrams: Both anodic and cathodic spikes may be observed
MCF-7 cells [1]; MBZ dose increased to about 10.5 nano-mole per liter, versus about 2 nano-mole per liter
  height of the CV spikes: increased by nearly three orders
MCF-7 cells [2]; about 10.5 nM MBZ, similar time
  amount of the cells in G0/G1 phase: sharper reduction
MCF-7 cells [2]; [4]
  G2/M fraction relative to CTRL: less than half
  apoptotic behavior of MCF-7 cells: did not induce the apoptotic behavior
MCF-7 cells [2]; about 2 nano-mole per liter MBZ (CTRL about 1300)
  peak of G0/G1: about 800
MCF-7 cells [2]; about 2 nano-mole per liter MBZ, compared with CTRL sample
  apoptotic cells with hypodiploid DNA (subG1 fraction): slightly increased
MCF-7 cells [3]; 2 hours after treatment (CTRL about 5 nA)
  Absolute DPV current peak: about 300 nA
MCF-7 cells [3]; about 12 hours after treatment
  Absolute DPV current peak: about 900 nA
MCF-7 cells [3]; 12 hours
  Absolute DPV: about 2000 nA
MCF-7 cells [3]; after 2 hours
  Absolute DPV: about 1400
